Patent US11066414B2, “Cot modulators and methods of use thereof” (Gilead Sciences, Inc., priority 2015, dated 2021)
Like-named read-outs stand apart in the source and are kept apart here.

Legend:
[1] = target: Human Cot (Homo sapiens (Human), UniProt P41279); assay: High Throughput Cot Biochemical Assay; conditions: Cot HTRF (TR-FRET KinEASE) biochemical assay, 400 μM ATP
[2] = tested on: TNFα; assay: Cot Monocyte TNFα Cell Based Assay
[3] = Homo sapiens, Monocyte, read-out: EC50 TNF, LPS-stimulated human monocytes, TNFα TR-FRET

Human Cot, sequence (P41279 30-397): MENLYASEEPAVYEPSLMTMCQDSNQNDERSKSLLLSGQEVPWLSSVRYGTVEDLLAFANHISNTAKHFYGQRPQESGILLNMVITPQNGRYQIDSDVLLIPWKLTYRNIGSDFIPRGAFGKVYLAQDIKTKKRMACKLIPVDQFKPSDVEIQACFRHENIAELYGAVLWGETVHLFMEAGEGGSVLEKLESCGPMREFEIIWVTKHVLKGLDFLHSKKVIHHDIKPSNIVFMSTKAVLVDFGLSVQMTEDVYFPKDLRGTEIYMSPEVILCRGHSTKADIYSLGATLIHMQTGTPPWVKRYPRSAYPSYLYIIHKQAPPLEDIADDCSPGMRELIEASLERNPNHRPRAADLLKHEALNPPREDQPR

IC50 ([1]; IC50 HTRF)	EC50 [2, 3]	IC50 ([1]; read-out: IC50 HTRF)	EC50 ([2]; read-out: EC50 TNF, LPS-stimulated human monocytes, TNFα TR-FRET)	Compound
0.005 µM	0.153 µM			Cc1nc(F)ccc1[C@H](Nc1cc(Cl)c2ncc(C#N)c(NCC(C)(C)C)c2c1)c1nnn(C2CC2)c1C1CC1 [Example 946, (S)-8-chloro-6-(((1,5-dicyclopropyl-1H-1,2,3-triazol-4-yl)(6-fluoro-2-methylpyridin-3-yl)methyl)amino)-4-(neopentylamino)quinoline-3-carbonitrile]
0.005 µM	0.099 µM			Cc1nc(F)ccc1[C@H](Nc1cc(Cl)c2ncc(C#N)c(NCC(C)(C)C(F)(F)F)c2c1)c1nnn(C2(C(F)F)CC2)c1F [Example 948, (S)-8-chloro-6-(((1-(1-(difluoromethyl)cyclopropyl)-5-fluoro-1H-1,2,3-triazol-4-yl)(6-fluoro-2-methylpyridin-3-yl)methyl)amino)-4-((3,3,3-trifluoro-2,2-dimethylpropyl)amino)-quinoline-3-carbonitrile]
0.004 µM	0.034 µM			Cc1nc(F)ccc1[C@H](Nc1cc(Cl)c2ncc(C#N)c(NCC(C)(C)C)c2c1)c1nnn(C2(C3CC3)CC2)c1F [Example 949, (S)-6-(((1-([1,1′-bi(cyclopropan)]-1-yl)-5-fluoro-1H-1,2,3-triazol-4-yl)(6-fluoro-2-methylpyridin-3-yl)methyl)amino)-8-chloro-4-(neopentylamino)quinoline-3-carbonitrile]
0.017 µM	0.26 µM			CC[C@@H](Nc1c(C#N)cnc2c(Cl)cc(N[C@@H](c3ccc(F)nc3C)c3nnn(C4(C(F)(F)F)CC4)c3F)cc12)c1ccccc1 [Example 950, 8-chloro-6-(((S)-(5-fluoro-1-(1-(trifluoromethyl)cyclopropyl)-1H-1,2,3-triazol-4-yl)(6-fluoro-2-methylpyridin-3-yl)methyl)amino)-4-(((R)-1-phenylpropyl)amino)quinoline-3-carbonitrile]
0.004 µM	0.036 µM			Cc1nc(F)ccc1[C@H](Nc1cc(Cl)c2ncc(C#N)c(NCC(C)(C)C)c2c1)c1nnn([C@@H](C)CF)c1F [Example 952, 8-chloro-6-(((S)-(5-fluoro-1-((S)-1-fluoropropan-2-yl)-1H-1,2,3-triazol-4-yl)(6-fluoro-2-methylpyridin-3-yl)methyl)amino)-4-(neopentylamino)quinoline-3-carbonitrile]
0.036 µM	0.353 µM			Cc1nc(F)ccc1[C@H](Nc1cc(Cl)c2ncc(C#N)c(Nc3cnc(F)c(F)c3)c2c1)c1nnn(C2(C(F)F)CC2)c1F [Example 953, (S)-8-chloro-6-(((1-(1-(difluoromethyl)cyclopropyl)-5-fluoro-1H-1,2,3-triazol-4-yl)(6-fluoro-2-methylpyridin-3-yl)methyl)amino)-4-((5,6-difluoropyridin-3-yl)amino)quinoline-3-carbonitrile]
0.007 µM	0.016 µM			Cc1nc(F)ccc1[C@H](Nc1cc(C#N)c2ncc(C#N)c(NCC(C)(C)C)c2c1)c1nnn(C23CC(C2)C3)c1F [Example 954, (S)-6-(((1-(bicyclo[1.1.1]pentan-1-yl)-5-fluoro-1H-1,2,3-triazol-4-yl)(6-fluoro-2-methylpyridin-3-yl)methyl)amino)-4-(neopentylamino)quinoline-3,8-dicarbonitrile]
0.006 µM	0.05 µM			Cc1nc(F)ccc1[C@H](Nc1cc(Cl)c2ncc(C#N)c(NCC(C)(C)C(F)(F)F)c2c1)c1nnn([C@@H](C)CF)c1F [Example 955, 8-chloro-6-(((S)-(5-fluoro-1-((S)-1-fluoropropan-2-yl)-1H-1,2,3-triazol-4-yl)(6-fluoro-2-methylpyridin-3-yl)methyl)amino)-4-((3,3,3-trifluoro-2,2-dimethylpropyl)amino)quinoline-3-carbonitrile]
0.007 µM	0.044 µM			Cc1nc(F)ccc1[C@H](Nc1cc(Cl)c2ncc(C#N)c(NCC(C)(C)C(F)(F)F)c2c1)c1nnn(C23CC(C2)C3)c1F [Example 956, (S)-6-(((1-(bicyclo[1.1.1]pentan-1-yl)-5-fluoro-1H-1,2,3-triazol-4-yl)(6-fluoro-2-methylpyridin-3-yl)methyl)amino)-8-chloro-4-((3,3,3-trifluoro-2,2-dimethylpropyl)amino)quinoline-3-carbonitrile]
		0.005 µM	0.054 µM	Cc1nc(F)ccc1[C@H](Nc1cc(Cl)c2ncc(C#N)c(NCC(C)(C)C(F)(F)F)c2c1)c1nnn(C2(C3CC3)CC2)c1F [Example 957]
0.003 µM	0.041 µM			Cc1nc(F)ccc1[C@H](Nc1cc(Cl)c2ncc(C#N)c(NCC(C)(C)C(F)(F)F)c2c1)c1nnn(C2(C)CC2)c1F [Example 959, (S)-8-chloro-6-(((5-fluoro-1-(1-methylcyclopropyl)-1H-1,2,3-triazol-4-yl)(6-fluoro-2-methylpyridin-3-yl)methyl)amino)-4-((3,3,3-trifluoro-2,2-dimethylpropyl)amino)quinoline-3-carbonitrile]
0.007 µM	0.055 µM			Cc1nc(F)ccc1[C@H](Nc1cc(Cl)c2ncc(C#N)c(NCC(C)(C)C)c2c1)c1nnn(C2(C(F)F)CC2)c1F [Example 960, (S)-8-chloro-6-(((1-(1-(difluoromethyl)cyclopropyl)-5-fluoro-1H-1,2,3-triazol-4-yl)(6-fluoro-2-methylpyridin-3-yl)methyl)amino)-4-(neopentylamino)quinoline-3-carbonitrile]
0.004 µM	0.051 µM			Cc1nc(F)ccc1[C@H](Nc1cc(Cl)c2ncc(C#N)c(NCC(C)(C)C)c2c1)c1nnn(C)c1F [Example 963, (S)-8-chloro-6-(((5-fluoro-1-methyl-1H-1,2,3-triazol-4-yl)(6-fluoro-2-methylpyridin-3-yl)methyl)amino)-4-(neopentylamino)quinoline-3-carbonitrile]
0.003 µM	0.105 µM			COc1c([C@@H](Nc2cc(C#N)c3ncc(C#N)c(NCC(C)(C)C)c3c2)c2ccc(F)nc2C)nnn1C1(C(F)F)CC1 [Example 964, (S)-6-(((1-(1-(difluoromethyl)cyclopropyl)-5-methoxy-1H-1,2,3-triazol-4-yl)(6-fluoro-2-methylpyridin-3-yl)methyl)amino)-4-(neopentylamino)quinoline-3,8-dicarbonitrile]
0.004 µM	0.078 µM			COc1c([C@@H](Nc2cc(Cl)c3ncc(C#N)c(NCC(C)(C)C)c3c2)c2ccc(F)nc2C)nnn1C1(C(F)F)CC1 [Example 965, (S)-8-chloro-6-(((1-(1-(difluoromethyl)cyclopropyl)-5-methoxy-1H-1,2,3-triazol-4-yl)(6-fluoro-2-methylpyridin-3-yl)methyl)amino)-4-(neopentylamino)quinoline-3-carbonitrile]
0.002 µM	0.094 µM			COc1c([C@@H](Nc2cc(Cl)c3ncc(C#N)c(NCC(C)(C)C)c3c2)c2ccc(F)nc2C)nnn1C1CC1 [Example 967, (S)-8-chloro-6-(((1-cyclopropyl-5-methoxy-1H-1,2,3-triazol-4-yl)(6-fluoro-2-methylpyridin-3-yl)methyl)amino)-4-(neopentylamino)quinoline-3-carbonitrile]
0.002 µM	0.094 µM			COc1c([C@@H](Nc2cc(Cl)c3ncc(C#N)c(NCC(C)(C)C)c3c2)c2ccc(F)nc2C)nnn1C12CC(C1)C2 [Example 968, (S)-6-(((1-(bicyclo[1.1.1]pentan-1-yl)-5-methoxy-1H-1,2,3-triazol-4-yl)(6-fluoro-2-methylpyridin-3-yl)methyl)amino)-8-chloro-4-(neopentylamino)quinoline-3-carbonitrile]
0.008 µM	0.258 µM			COc1c([C@@H](Nc2cc(Cl)c3ncc(C#N)c(NCC(C)(C)C)c3c2)c2ccc(F)nc2C)nnn1C [Example 969, (S)-8-chloro-6-(((6-fluoro-2-methylpyridin-3-yl)(5-methoxy-1-methyl-1H-1,2,3-triazol-4-yl)methyl)amino)-4-(neopentylamino)quinoline-3-carbonitrile]
0.011 µM	0.301 µM			COc1c(C(Nc2cc(Cl)c3ncc(C#N)c(NCC(C)(C)C)c3c2)c2ccc(F)nc2C)nnn1C (centres unmarked) [Example 971, 8-chloro-6-(((6-fluoro-2-methylpyridin-3-yl)(5-methoxy-1-methyl-1H-1,2,3-triazol-4-yl)methyl)amino)-4-(neopentylamino)quinoline-3-carbonitrile]
1.82 µM	1 µM			CC(C)(C)CNc1c(C#N)cnc2c(Cl)cc(N[C@H](c3cn(C4(C(F)(F)F)CC4)nn3)c3cccc4[nH]c(C(F)(F)F)nc34)cc12 [Example 972, (S)-8-chloro-4-(neopentylamino)-6-(((2-(trifluoromethyl)-1H-benzo[d]imidazol-4-yl)(1-(1-(trifluoromethyl)cyclopropyl)-1H-1,2,3-triazol-4-yl)methyl)amino)quinoline-3-carbonitrile]
0.011 µM	0.06 µM			Cc1nc(F)ccc1[C@H](Nc1cc(Cl)c2ncc(C#N)c(NCC(C)(C)C)c2c1)c1nnn(C2(C(F)F)CC2)c1C#N [Example 974, (S)-8-chloro-6-(((5-cyano-1-(1-(difluoromethyl)cyclopropyl)-1H-1,2,3-triazol-4-yl)(6-fluoro-2-methylpyridin-3-yl)methyl)amino)-4-(neopentylamino)quinoline-3-carbonitrile]

Compound	IC50 ([1]; IC50 HTRF)	EC50 [2, 3]	IC50 ([1]; read-out: IC50 HTRF)	EC50 ([2]; read-out: EC50 TNF, LPS-stimulated human monocytes, TNFα TR-FRET)
[2H]c1c([C@@H](Nc2cc(Cl)c3ncc(C#N)c(NC([2H])([2H])C(C)(C)C)c3c2)c2ccc(F)nc2C)nnn1C1(C(F)F)CC1 [Example 973, (S)-8-chloro-6-(((1-(1-(difluoromethyl)cyclopropyl)-1H-1,2,3-triazol-4-yl-5-d)(6-fluoro-2-methylpyridin-3-yl)methyl)amino)-4-((2,2-dimethylpropyl-1,1-d2)amino)quinoline-3-carbonitrile]	0.003 µM	0.034 µM		
